# Measured values published in patent US9687529B2, “Method of controlling coagulation” (Duke University, priority 2011, dated 2017).
# “And” between values parts separate entries of the source, which are not always exact repeats. Equal values may be shown once.
# Tests used:
# [1] = tested on: clot formation in normal human platelet poor plasma; test: Activated partial thromboplastin time (aPTT) plasma clotting assay; assay type: biochemical; conditions: for increase of aPTT clotting time: 4 μM aptamer
# Experimental: The activated partial thromboplastin time (aPTT) and prothrombin time (PT) assays were performed on a model ST4 mechanical coagulometer (Diagnostica Stago, Parsippany, N.J.) as previously described (Bompiani et al, J Thromb Haemost 10:870-80 (2012)). For the aPTT, 50 μL of normal human platelet poor plasma (PPP) was incubated with 50 μL TriniClot aPTT S (Trinity BioTech, Bray, Co Wicklow, Ireland) at 37° C. for 5 min. Aptamer(s) (5 μL) was added, and the mixture was incubated at 37° C. for another 5 min, and CaCl2 (50 μL) was added to initiate the assay. For the PT, 50 μL of normal human PPP was incubated with 5 μL of aptamer(s) at 37° C. for 5 min. TriniClot PT Excel reagent (Trinity BioTech, Bray, Co Wicklow, Ireland) (100 μL) was added to initiate the reaction. Assays with a combination of two aptamers contain an equimolar concentration of each individual aptamer, and the data shown are the total RNA concentration.
# To compare the anticoagulant effect of these four aptamers, dose-response titrations were performed in several clinical plasma-based clotting assays. The activated partial thromboplastin time (aPTT) and prothrombin time (PT) are plasma clotting assays that are clinically used to probe for abnormalities in the intrinsic and extrinsic coagulation pathways, respectively (Van Cott et al, editors. Jacobs & DeMott laboratory test handbook. 5th ed. Hudson Ohio: Lexi-Comp. p. 327-58 (2001)). These relatively simple assays measure the time until clot formation in platelet poor plasma (PPP) in response to either robust tissue factor (TF), or contact stimulation via negatively charged surfaces (i.e., silica, kaolin, celite). […] At high concentrations, the prothrombin aptamer (R9D-14T) was the most robust anticoagulant and inhibited greater than 96% of prothrombin activity in the aPTT and PT. At 4 μM, R9D-14T increased the aPTT clotting time approximately 18-fold and the PT clotting time greater than 80-fold (exceeded the assay limit of 999 sec). […] At the same dose, the FIXa aptamer (9.3T) inhibited greater than 99% of FIX activity and increased the aPTT clotting time approximately 5.5-fold, while the FVIIa aptamer (7S-1) increased the PT clotting time 3-fold and inhibited greater than 99% of FVII activity (FIGS. 20A and 20B).
# [2] = tested on: clot formation in whole blood; test: Thromboelastography (TEG), whole blood stimulated with kaolin; assay type: cell-based, human
# Experimental: (§1) Blood was drawn from healthy, consented volunteers under a Duke University Institutional Review Board approved protocol and anticoagulated with 3.2% sodium citrate. Whole blood (320 μL) was mixed with anticoagulant (heparin or aptamers) (10 μL) and kaolin (Haemonetics, Niles, Ill.) (10 μL) or CAT PRP reagent (Diagnostica Stago, 0.33 ρM TF final) (10 μL) was added to stimulate clotting. CaCl2 (20 μL) was immediately added to overcome the citrate, the mixture was added to a plain disposable plastic TEG cup (Haemonetics), and the assay was run according to the manufacturer's instructions. Clot formation at 37° C. was measured with a Thromboelastograph Analyzer (Haemonetics, Niles, Ill.) until a stable clot was formed (i.e., a maximum amplitude was reached) or for three hours with the aptamer combinations. The time lag time, α-angle, and maximum amplitude were automatically calculated by the TEG® Analytical Software version 4.2.3 (Haemonetics).
# Although the aPTT, PT, and CAT assays provide basic information about dose-dependent anticoagulation, these assays are performed in an environment that lacks platelets. Platelets play a crucial role in clot formation by providing a membrane surface upon which the clotting factors assemble, by aggregating and becoming physically incorporated into the blood clot, and by releasing internal stores of agonists that amplify coagulation (Monroe et al, Arterioscler Thromb Vasc Biol 22:138 1-9 (2002)). Therefore, a study was made of aptamer anticoagulation with thromboelastography (TEG), which provides real-time information about the kinetics of clot formation in whole blood (Reikvam et al, Transfus Apher Sci; 40:119-23 (2009). The TEG assay uses mechanical motion to quantify the physical properties of clot formation, including the lag time (the time until clot formation), the α-angle (the rate of clot formation), and the maximum amplitude (the mechanical strength of the clot formed).
# [3] = tested on: clot formation in whole blood; test: Thromboelastography (TEG), whole blood stimulated with tissue factor; assay type: cell-based, human
# Experimental: as §1
# Because kaolin stimulates blood via the intrinsic pathway, it is unlikely that 7S-1 (FVIIa aptamer) would impair clot formation with this type of stimulation; thus, this aptamer was tested in a modified TEG with TF stimulation. CAT platelet rich plasma (PRP) reagent (TF) was diluted to a final concentration of 0.33 ρM TF to stimulate clotting.
# [4] = tested on: fibrin deposition on oxygenator membrane; test: Oxygenator membrane scanning electron microscopy; set-up: species or system human; conditions: FIG. 25 doses: UFH 5 U/mL, 9.3T 1 μM, 11F7T 2 μM, R9D-14T 5 μM, 11F7T 0.5 μM+R9D-14T 5 μM
# Experimental: After 2 hours of circulation (or until there was visible clot formation), the minicircuit was washed with three volumes (approximately 60 mL) of PBS at a flow rate of 50 mL/min. The oxygenator membrane was removed with forceps, washed with gentle rocking in PBS for approximately 30 sec, then removed and blotted. Three pieces approximately 10 mm×10 mm were excised from different areas of the membrane with a clean razor blade. The membrane pieces were fixed overnight in PBS with 4% formaldehyde and 2% glutaraldehyde, washed two times with PBS, then dehydrated in an ethanol gradient (30% to 100%). The membranes were subsequently submerged in tetramethylsilane (TMS) for 10 min, then removed and placed in a desiccator overnight. Desiccated membrane specimens measuring approximately 10 mm×7 mm were affixed with double sided tape to circular metal stubs approximately 14 mm in diameter. The specimens were gold sputter coated in a Denton Vacuum Desk IV® (Denton Vacuum LLC, Moorestown, N.J.) according to the manufacturer's instructions. The scanning electron microscopic (SEM) images were obtained with a FEI XL 30 FE SEM (FEI, Hillsboro, Oreg.).
Substance,increase of aPTT clotting time [1],Angle ([2]; RNA 0.5 μM),Lag-time ([2]; RNA 0.5 μM),Max. Amplitude ([2]; RNA 0.5 μM),Angle ([2]; RNA 1.0 μM),Lag-time ([2]; RNA 1.0 μM),Max. Amplitude ([2]; RNA 1.0 μM),Angle ([2]; RNA 2.0 μM),Lag-time ([2]; RNA 2.0 μM),Max. Amplitude ([2]; RNA 2.0 μM),"fibrin deposition on oxygenator membrane, scanning electron micrographs (in words) [4]",other results
"9.3T: FIXa aptamer, 2'-fluoropyrimidine modified RNA, SEQ ID NO: 1 (AUGGGGACUAUACCGCGUAAUGCUGCCUCCCCAU; 2'-fluoro at CU, RNA at AG, backbone not given here) [Aptamer 9.3T]",approximately 5.5 fold,41.4 ± 0.5 deg,22.8 ± 2.0 min,55.4 ± 3.2 mm,37.6 deg and 37.6 ± 7.1 deg,25.5 min and 25.5 ± 1.8 min,55.4 mm and 55.4 ± 2.6 mm,36.9 ± 2.9 deg,29.9 ± 1.4 min,55.9 ± 3.4 mm,obvious fibrin deposition on the membrane,Angle ([3]; RNA 1.00 μM): 66.3 deg and 66.3 ± 1.3 deg; Lag-time ([3]; RNA 1.00 μM): 4.5 min and 4.5 ± 0.5 min; Max. Amplitude ([3]; RNA 1.00 μM): 69.1 mm and 69.1 ± 1.5 mm
"11F7T: FXa aptamer, 2'-fluoropyrimidine modified RNA, SEQ ID NO: 2 (GAGAGCCCCAGCGAGAUAAUACUUGGCCCCGCUCUU; 2'-fluoro at CU, RNA at AG, backbone not given here) [Aptamer 11F7T]",approximately 11 fold,40.3 ± 1.4 deg,15.6 ± 0.8 min,52.4 ± 1.6 mm,28.7 ± 5.0 deg,20.6 ± 3.0 min,48.2 ± 3.7 mm,18 deg and 18.0 ± 5.9 deg,39.6 min and 39.6 ± 9.1 min,39.6 mm and 39.6 ± 4.4 mm,obvious fibrin deposition on the membrane,Angle ([3]; RNA 2.00 μM): 21.4 deg and 21.4 ± 7.3 deg; Lag-time ([3]; RNA 2.00 μM): 51.1 min and 51.1 ± 12.2 min; Max. Amplitude ([3]; RNA 2.00 μM): 51.1 mm and 51.1 ± 1.6 mm
"R9D-14T: prothrombin/thrombin aptamer, 58-base truncation of RNA9D-14, SEQ ID NO: 3 (GGCGGTCGATCACACAGTTCAAACGTAATAAGCCAATGTACGAGGCAGACGACTCGCC; 2'-fluoro at CT, RNA at AG, backbone and T or U not given here) [Aptamer R9D-14T]",approximately 18 fold,,,,,,,48.1 ± 9.7 deg,8.3 ± 2.0 min,56.0 ± 6.3 mm,obvious fibrin deposition on the membrane,"prothrombin activity inhibited ([1]; aPTT, high concentrations): greater than 96%; Angle ([2]; RNA 1.25 μM): 60.4 ± 2.4 deg; Lag-time ([2]; RNA 1.25 μM): 7.1 ± 1.4 min; Max. Amplitude ([2]; RNA 1.25 μM): 62.0 ± 3.0 mm; Angle ([2]; RNA 5.0 μM): 30 deg and 30.0 ± 5.7 deg; Lag-time ([2]; RNA 5.0 μM): 21.5 min and 21.5 ± 4.9 min; Max. Amplitude ([2]; RNA 5.0 μM): 49.6 mm and 49.6 ± 3.6 mm; Angle ([3]; RNA 5.00 μM): 15.2 deg and 15.2 ± 2.5 deg; Lag-time ([3]; RNA 5.00 μM): 39.4 min and 39.4 ± 5.0 min; Max. Amplitude ([3]; RNA 5.00 μM): 36.8 mm and 36.8 ± 1.4 mm"
